{"source": "patent US20090131354A1", "about": "“miR-126 REGULATED GENES AND PATHWAYS AS TARGETS FOR THERAPEUTIC INTERVENTION” (priority 2007, published 2009)", "key": {"[1]": {"test_system": "established H460 lung tumors", "assay": "Established H460 lung tumors, intratumoral injections", "assay_type": "in vivo, NOD/SCID mice", "conditions": "H460, 6.25 μg intratumoral with siPORT amine on days 11, 14, 17", "description": "Delivery of hsa-miR-126 into human lung cancer cells prior to implantation into the animal inhibited the formation of lung tumor xenografts. […] To explore this possibility, each 3×10^6 human H460 non-small lung cancer cells were mixed with BD Matrigel™, (BD Biosciences; San Jose, Calif., USA; cat. no. 356237) in a 1:1 ratio and subcutaneously injected into the lower back of 23 NOD/SCID mice (Charles River Laboratories, Inc.; Wilmington, Mass., USA). Once animals developed palpable tumors (day 11 post xenograft implantation), a group of six animals received intratumoral injections of each 6.25 μg hsa-miR-126 (Dharmacon, Inc., Lafayette, Colo., USA) formulated with the lipid-based siPORT™ amine delivery agent (Ambion, Austin, Tex.; cat. no. AM4502) on days 11, 14 and 17. A control group of six animals received intratumoral injections of each 6.25 μg negative control miRNA (NC; Dharmacon, Lafayette, Colo.), following the same injection schedule that was used for hsa-miR-126. Given an average mouse weight of 20 g, this dose equals 0.3125 mg/kg. […] Caliper measurements were taken every 1-2 days, and tumor volumes were calculated using the formula, Volume=length×width×width/2, in which the length is greater than the width."}, "[2]": {"test_system": "PC3 prostate cancer cells", "assay": "Long-term growth curve with repeated electroporation, PC3", "assay_type": "cell-based, human", "description": "To evaluate the therapeutic activity of hsa-miR-126 over an extended period of time, we conducted growth curve experiments in the presence of miRNA for up to 21 days. Since in vitro transfections of naked interfering RNAs, such as synthetic miRNA, are transient by nature and compromised by the dilution of the oligonucleotide during ongoing cell divisions, we administered miRNA at multiple time points (Bartlett and Davis, 2006; Bartlett and Davis, 2007). To accommodate miRNA delivery into a large quantity of cells, we employed the electroporation method to delivery hsa-miR-126 or negative control miRNA into PPC-1, PC3 and Du145 human prostate cancer cells. Briefly, 1×10^6 PPC-1 or PC3 cells, and 0.5×10^6 Du145 cells were electroporated with 1.6 μM hsa-miR-126 or negative control using the BioRad Gene Pulser Xcell™ instrument (BioRad Laboratories Inc., Hercules, Calif., USA), seeded and propagated in regular growth medium. Experiments with PC3 and Du145 cells were carried out in triplicates. When the control cells reached confluence (days 4 and 11 for PPC-1; days 7 and 14 for PC3 and Du145), cells were harvested, counted and electroporated again with the respective miRNAs. […] The population doubling was calculated from these electroporation events using the formula PD=ln(Nf/N0)/ln2, and cell counts were extrapolated and plotted on a linear scale (FIGS. 10-12). […]"}, "[3]": {"test_system": "prostate cancer cells PPC-1, Du145, LNCaP and RWPE2", "assay": "Alamar Blue proliferation assay, all prostate cancer cell lines tested", "assay_type": "cell-based, human", "description": "The inventors assessed the therapeutic effect of hsa-miR-126 for prostate cancer by using 4 individual human prostate cancer cell lines. To measure cellular proliferation of prostate cancer cells, the following prostate cancer cell lines were used: PPC-1, derived from a bone metastasis; Du145, derived from a brain metastasis; RWPE2, derived from prostate cells immortalized by human papillomavirus 18 and transformed by the K-RAS oncogene; and LNCaP, derived from a lymph node metastasis (Stone et al., 1978; Horoszewicz et al., 1980; Brothman et al., 1991; Pretlow et al., 1993; Bello et al., 1997). PPC-1 and Du145 cells lack expression of the prostate-specific antigen (PSA) and are independent of androgen receptor (AR) signaling. In contrast, RWPE2 and LNCaP cells test positive for PSA and AR. Cells were transfected with synthetic hsa-miR-126 (Pre-miR™-hsa-miR-126, Ambion cat. no. AM 17100) or negative control miRNA (NC; Pre-miR™ microRNA Precursor Molecule-Negative Control #2; Ambion cat. no. AM17111) in a 96-well format using a lipid-based transfection reagent. […] Proliferation was assessed 4-7 days post-transfection using Alamar Blue™ (Invitrogen) following the manufacturer's instructions. […] Fluorescent light units (FLU) were measured after 3 hours, normalized to the control, and plotted as percent change in proliferation. […]"}}, "data": [{"substance": "hsa-miR-126 (UCGUACCGUGAGUAAUAAUGC; synthetic pre-miR form, further chemistry not given here) [Synthetic hsa-miR-126 (Pre-miR™-hsa-miR-126, Ambion cat. no. AM17100)]", "values": [{"measurement": "growth of established tumors", "setting": "[1]", "value": "robustly inhibited growth of established H460 lung tumors"}, {"measurement": "inhibition of cell growth", "setting": "[2]; PC3, day 21, 1.6 μM repeated electroporation, relative to control cells (100%)", "value": 90.7, "unit": "%"}, {"measurement": "remaining cells", "setting": "[2]; PC3, day 21, relative to control cells (100%)", "value": 9.3, "unit": "%"}, {"measurement": "average inhibition of cellular proliferation", "setting": "[3]; average of PPC-1, Du145, LNCaP, RWPE2, 30 nM", "value": 23.07, "unit": "%"}, {"measurement": "growth-inhibitory activity compared with siEg5", "setting": "[3]; prostate cancer cell lines, 30 nM", "value": "comparable to that of Eg5-directed siRNA"}]}]}
